The results in this text go back to patent US20140024683A1, “CHLORIDE CHANNEL AND CHLORIDE TRANSPORTER MODULATORS FOR THERAPY IN SMOOTH MUSCLE DISEASES” (priority 2011, published 2014).

SMILES strings stand for the structures.

For assay [1], the system named is human airway smooth muscle cells. The experiment in a line: Whole cell current clamp recording of membrane potential. Type of assay: cell-based. As for the experimental part:
Induced electrophysiological changes in membrane potential and current were measured using traditional whole cell patch clamp methods. Immortalized human airway smooth muscle cells were grown to confluence on collagen-treated T25 flasks. Collagenase type IV in SmBM2 medium (Lonza, Walkersville, Md.) was used to release cells adherent to the collagen matrix in the flask. Medium with cells in suspension was then harvested in a 10-ml conical tube and centrifuged at 300×g. Supernatant was removed, and the pellet was resuspended in SmBM2 medium and transferred into collagen-treated glass bottom 1-cm Petri dishes at about 10% confluence. Each dish was then incubated at 37° C. and 5% CO2 for 1-4 hours for reattachment of cells to glass-bottom Petri dishes.
Glass-bottom dishes served as a disposable recording chamber. ALA VM-8, an 8-chamber pressure-driven drug application system, was used in a still bath of extracellular salt solution. Whole-cell intracellular voltage recordings under current clamp conditions were performed with a 2-kHz Bessel filter, recording at 10 kHz using an Axopatch 200b amplifier (Axon Instruments, Foster City, Calif., USA). Electrodes were pulled using a P-97 micropipette puller from 1.5-mm OD borosilicate capillary glass (Sutter Instruments, Novato, Calif., USA). Glass electrode resistances ranged from 5 to 10 MO with intracellular solution. Whole-cell intracellular current recordings under voltage-clamp conditions were performed with a 2-kHz Bessel filter, recording at 10 kHz using an Axopatch 200b amplifier. For current measurements (FIG. 11) intracellular solutions consisted of (in mM) 140 TEA-Cl, 5 MgATP, 5 EGTA, 1 MgCl2, 10 HEPES, and 5 CaCl2 (pH 7.2). Extracellular solution consisted of (in mM) 134 NaCl, 1.4 KCl, 10 HEPES, 1 MgCl2, 1.8 CaCl2, and 10 glucose (pH 7.4). This induced the classic spontaneously transient inward currents (STICs) and spontaneously transient outward currents (STOCs) well described in this cell type. STOCs are believed to represent activation of calcium activated potassium (KCa) channels while STICs are believed to represent activation of CaCCs. TEA-Cl was included in the buffer to enhance STICs which were then recorded during the addition of 100 μM niflumic acid. When recording TEA- and niflumic acid-induced responses on membrane potential (ΔmV), the intracellular solutions contained (in mM) 140 KCl, 5 MgATP, 5 EGTA, 1 MgCl2, 10 HEPES, and 5 CaCl2 (pH 7.2), and the extracellular solutions consisted of (in mM) 134 NaCl, 5 MgATP, 5 EGTA, 1 MgCl2, 10 HEPES, and 5 CaCl2 (pH 7.2). All recordings were analyzed on Clampfit 8.0 software (Molecular Devices).

The test system of assay [2] is guinea pig tracheal rings. The experiment in a line: Relaxation of potassium gluconate contraction in guinea pig tracheal rings. The settings on record: 100 μM, 80 mM potassium gluconate. The procedure:
(§1) Animal protocols were approved by the Columbia University Animal Care and Use Committee. Male Hartley guinea pigs weighing approximately 400 g were anesthetized with intraperitoneal injection of sodium pentobarbital (100 mg/kg). Trachea were removed and transferred to ice cold Krebs-Henseleit (KH) buffer of the following composition (in mM): NaCl 118, KCl 5.6, CaCl2 0.5, MgSO4 0.24, NaH2PO4 1.3, NaHCO3 25, glucose 5.6, pH 7.4. Epithelial-denuded tracheal rings were prepared using a dissecting microscope. Epithelium was removed by gently passing cotton fibers through the lumen of the tracheal rings. The rings were suspended in 4 mL-water jacketed organ baths (37° C.: Radnoti Glass Technology, Monrovia, Calif.) and connected to a Grass FT03 force transducer (Grass Telefactor, West Warwick, R.I.) using silk sutures. The transducers were coupled to the computer with BioPac hardware and data was collected using Acqknowledge 7.3.3 software (BioPac Systems, Goleta, Calif.). KH buffer was bubbled with a gas mixture of 95% oxygen and 5% carbon dioxide and buffer was exchanged every 15 minutes for 1 hour during equilibration of tracheal rings at 1 g resting tension. […].
Many chloride channel blockers are known to also stimulate potassium channels (Greenwood et al., 2007). Thus, we performed additional studies in the presence of a large extracellular concentration of potassium to ensure that our findings of compound 1 or 13 inhibiting a TEA-induced depolarizing contraction were not due to these compounds opening a potassium channel.

Assay [3] concerns calcium activated chloride channel. Put plainly: Whole cell voltage clamp, spontaneous transient inward currents (STICs) in a single guinea pig airway smooth muscle cell. Type of assay: cell-based. Conditions: about 100 μM bath application after TEA; holding potential about −60 mV. The source says:
Epithelial denuded guinea pig tracheal rings were suspended in organ baths under 1 g resting tension with continuous digital recordings of muscle force. In separate studies, guinea pig airway smooth muscle cells were enzymatically dispersed and cultured.
Glass-bottom dishes served as a disposable recording chamber. ALA VM-8, an 8-chamber pressure-driven drug application system, was used in a still bath of extracellular salt solution. Whole-cell intracellular voltage recordings under current clamp conditions were performed with a 2-kHz Bessel filter, recording at 10 kHz using an Axopatch 200b amplifier (Axon Instruments, Foster City, Calif., USA). Electrodes were pulled using a P-97 micropipette puller from 1.5-mm OD borosilicate capillary glass (Sutter Instruments, Novato, Calif., USA). Glass electrode resistances ranged from 5 to 10 MO with intracellular solution. Whole-cell intracellular current recordings under voltage-clamp conditions were performed with a 2-kHz Bessel filter, recording at 10 kHz using an Axopatch 200b amplifier. For current measurements (FIG. 11) intracellular solutions consisted of (in mM) 140 TEA-Cl, 5 MgATP, 5 EGTA, 1 MgCl2, 10 HEPES, and 5 CaCl2 (pH 7.2). […] TEA-Cl was included in the buffer to enhance STICs which were then recorded during the addition of 100 μM niflumic acid. […] All recordings were analyzed on Clampfit 8.0 software (Molecular Devices).

Assay [4] has as its system human airway smooth muscle cells. Put plainly: FLIPR potentiometric dye membrane potential assay (Examples 9, 12). Type of assay: cell-based. The settings on record: 100 μM. The procedure:
To determine whether blockade of CaCCs or NKCCs induce membrane potential changes in cultured human airway smooth muscle cells, the FLIPR in vitro fluorescent dye assay (Molecular Devices) was used as described by Wafford et al. (2009). Briefly, human airway smooth muscle cells were grown to 100% confluence in 96-well black-walled plates and were washed with warmed (37° C.) normal-chloride buffer [consisting of (in mM) 130 sodium chloride, 2 CaCl2, 1 MgCl2, 10 D-glucose, and 10 HEPES, pH 7.4] four times. A stock solution (100% dye) of FLIPR blue dye (Molecular Devices) was prepared by reconstitution of 1 vial (125 mg) with 100 ml of the normal-chloride buffer (assay buffer). A 50% working stock was prepared by further diluting the reconstituted blue dye 1:1 with assay buffer and was used to load cells (90 μl/well) over 20 minutes at 37° C. All reagents were dissolved in assay buffer. Baseline fluorescence was measured for 3 minutes prior to the first control additions (assay buffer). […] The fluorescence produced by membrane potential change following solution additions was quantified after subtracting changes induced by assay buffer alone.

In assay [5] the test system is guinea pig tracheal rings. Put plainly: Potentiation of isoproterenol relaxation of acetylcholine contraction, guinea pig tracheal rings. Conditions: 10 μM bumetanide. The procedure:
as §1
Therefore, we tested whether the chloride channel blockers or modulation of chloride flux could be used in combination with β-agonists to potentiate their effects. […]. Therefore, a combination of treatment with compound 13 and bumetanide potentiated the relaxation effect of isoproterenol.

Assay [6] has as its system guinea pig tracheal rings. Put plainly: Relaxation of the maintenance phase of a pre-established acetylcholine contraction, guinea pig tracheal rings. The settings on record: alone; pre-contracted with EC50 acetylcholine. As for the experimental part: as §1
Chloride channel blockers were then tested against the plateau phase of an established acetylcholine contraction. […]

For the compound `O=C(O)c1cccnc1Nc1cccc(C(F)(F)F)c1` [niflumic acid], the “membrane potential (whole cell current clamp)” value in assay [1] (100 μM niflumic acid) is recorded as “hyperpolarizes the plasma membrane”. In addition, in assay [1] (following depolarization with TEA chloride), the “membrane potential (whole cell current clamp) after depolarization” value was “reverses membrane potential”. Moreover, the “percent of potassium gluconate-induced contraction at 30 minutes” value in assay [2] is given as 47.36%±4.6; in assay [2] (listed as NFA) it was 47.4%±4.6. The “spontaneous transient inward currents (STICs)” value in assay [3] was “abolishes STIC's”. The entries for the “membrane potential change (FLIPR)” value in assay [4] and in assay [4] (listed as NFA) were “hyperpolarized the cell membrane” and “hyperpolarizes the airway smooth muscle cell plasma membrane”, respectively.

Turning to `CCCCNc1cc(C(=O)O)cc(S(N)(=O)=O)c1Oc1ccccc1` [bumetanide], the “shift of the EC50 of isoproterenol” value in assay [5] came to 2.4 fold. In addition, the “relaxation of established acetylcholine contraction” value in assay [6] was “significantly relaxed an acetylcholine contraction”.
